Results taken from patent US11154572B2, “Methods of treatment with natural killer cells matched for killer immunoglobulin receptor type” (Board of Regents, The University of Texas System, priority 2015, dated 2021).

Experiments:
iC9/CAR19/IL15+ NK cells = assay: Inducible caspase-9 suicide gene test, annexin-V-7AAD staining; format: cell-based, human; conditions: after 4 hours
Text: (C) CAR-NK cells home to sites of disease, such as the spleen, bone marrow, and liver, in a Raji engrafted mouse at Day 16 post-infusion. (D) CAR-NK cells persist in Raji engrafted mice at Day 70 post infusion. (E) CAR-transduced CB-NK cells show an anti-tumor effect in vivo in Raji-FFLuc mice from Day 0 to Day 14. (F) CAR-transduced CB-NK cells show an anti-tumor effect in vivo in Raji-FFLuc mice from Day 21 to Day 35. […] (H) Survival curve with different NK cell treatments. (I) CAR.19.IL15-iCasp9 transduced CB-NK cells are eliminated after activation of the suicide gene by exposure to the small molecule AP1903 after 4 hours.
Because of concerns over autonomous, uncontrolled NK-cell growth due to autocrine production of IL-15, a suicide gene based on the inducible caspase-9 (IC9) gene was incorporated into the construct. To test the inducible caspase-9 suicide gene that was incorporated into the retroviral vector, 10 nM of CID AP20187 was added to cultures of iC9/CAR19/IL15+ NK cells. The AP20187 induced apoptosis/necrosis of transgenic cells within 4 hours as assessed by annexin-V-7AAD staining (FIG. 2I).

[1] = tested on: primary CD19+ tumor cells; assay: Cytotoxicity (percent lysis) against tumor cells; format: cell-based, human; conditions: combination with CAR-transduced NK cells
Text: FIGS. 1A-1I: (A) CB NK cells were stably transduced with SFG.iCASP9.2A.CAR.CD19-28z.2A.[…]. Cell analysis for CD56 and CAR are shown from Day 10 to Day 44. (B) Histograms show NK receptor expression on ex vivo-expanded cord blood versus peripheral blood NK cells. NK receptors include KIR2DL2/DL3, KIR2DL1, NGK2A, NKP30, NKP44, and NKP46. (C) aAPC-expanded NK cells maintain an Eomes^hi and T-bet^hi phenotype. […] (G) NK cells co-expressing CAR.19-IL-15-iCasp9 form functional synapses with CD19^+ CLL cells. Cells are stained for Perforin, Phalloidin, and CAR and imaged by confocal microscopy. (H) CAR.19-IL-15-iCasp9 transduced CB-NK cells are more efficient at killing primary CD19^+ tumor cells. Percent lysis of tumor cells is shown at varying effector:target ratios of K562, Raji, and CLL cells. (I) The activity of cord blood-derived NK cells against primary CLL cells is enhanced with lenalidomide (Revlimid).
The immunological synapse in immune cells is a discrete structural entity that forms after the ligation of a specific activation receptor and enables the cell to progress through a series of biological steps that allow it to destroy cancer cells through the elaboration of the contents of NK cells lytic granules. To determine if the CAR-transduced NK cells formed immunological synapses with CD19^+ targets, the cells were stained with antiperforin, Phalloidin-F-actin and anti-CD19-CAR.

Compound	elimination of CAR.19.IL15-iCasp9 transduced CB-NK cells after activation of the suicide gene (iC9/CAR19/IL15+ NK cells)	activity of CAR-transduced NK cells against patient-derived CLL cells on addition of lenalidomide [1]
CC[C@H](C(=O)N1CCCC[C@H]1C(=O)O[C@H](CCc1ccc(OC)c(OC)c1)c1cccc(OCC(=O)NCCNC(=O)COc2cccc([C@@H](CCc3ccc(OC)c(OC)c3)OC(=O)[C@@H]3CCCCN3C(=O)[C@@H](CC)c3cc(OC)c(OC)c(OC)c3)c2)c1)c1cc(OC)c(OC)c(OC)c1 [AP1903]	eliminated	–
Nc1cccc2c1CN(C1CCC(=O)NC1=O)C2=O (centres unmarked) [lenalidomide]	–	enhanced synergistically
